Values after ≈ are worked out from the molar mass of the structure shown. Read-outs that look alike come from different tables or passages of the source. Marks after values point to notes of the source that are not given here.
Legend:
S. aureus (MRSA) = experiment: MIC by broth microdilution; assay type: cell-based, Staphylococcus aureus; conditions: S. aureus (MRSA), N=74
Protocol: (§1) Minimal inhibitory concentrations (MICs) of exebacase against staphylococci were determined by broth microdilution (BMD) using a nonstandard antimicrobial susceptibility testing (AST) medium comprised of cation-adjusted Mueller Hinton broth (caMHB) supplemented with horse serum (Sigma Aldrich) and dithiothreitol (DTT; Sigma Aldrich) to final concentrations of 25% and 0.5 mM, respectively. This medium, referred to as caMHB-HSD, is approved for use in exebacase AST by the Clinical and Laboratory Standards Institute (CLSI) (CLSI. 2017, Jan. 16-17. AST Subcommittee Working Group Meetings and Plenary. AST Meeting Files & Resources, clsi.org/education/microbiology/ast/ast-meeting-files-resources/. Additional supplementation with 2.5% lysed red blood cells (Remel™, ThermoFisher) was included for analyses of streptococcal isolates, as recommended by CLSI. See CLSI, 2015. Methods for Dilution Antimicrobial Susceptibility Tests for Bacteria That Grow Aerobically, 10th Edition. Clinical and Laboratory Standards Institute, Wayne, Pa.
(§2) Daptomycin (Sigma Aldrich) and vancomycin hydrochloride (Sigma Aldrich) were tested following the reference BMD method for each. See CLSI. 2015. Methods for Dilution Antimicrobial Susceptibility Tests for Bacteria That Grow Aerobically, 10th Edition. Clinical and Laboratory Standards Institute, Wayne, Pa.

S. aureus (MSSA) = experiment: MIC by broth microdilution; assay type: cell-based, Staphylococcus aureus; conditions: S. aureus (MSSA), N=73
Protocol: as §1, §2

S. lugdunensis = experiment: MIC by broth microdilution; assay type: cell-based, Staphylococcus lugdunensis; conditions: S. lugdunensis, N=49
Protocol: as §1, §2

S. capitis = experiment: MIC by broth microdilution; assay type: cell-based, Staphylococcus capitis; conditions: S. capitis, N=13
Protocol: as §1, §2

S. warneri = experiment: MIC by broth microdilution; assay type: cell-based, Staphylococcus warneri; conditions: S. warneri, N=23
Protocol: as §1, §2

S. anginosus = experiment: MIC by broth microdilution; assay type: cell-based, Streptococcus anginosus; conditions: S. anginosus (viridans), N=10
Protocol: as §1, §2

S. gordonii = experiment: MIC by broth microdilution; assay type: cell-based, Streptococcus gordonii; conditions: S. gordonii (viridans), N=11
Protocol: as §1, §2

S. mitis = experiment: MIC by broth microdilution; assay type: cell-based, Streptococcus mitis; conditions: S. mitis (viridans), N=18
Protocol: as §1, §2

S. mutans = experiment: MIC by broth microdilution; assay type: cell-based, Streptococcus mutans; conditions: S. mutans (viridans), N=22
Protocol: as §1, §2

S. oralis = experiment: MIC by broth microdilution; assay type: cell-based, Streptococcus oralis; conditions: S. oralis (viridans), N=15
Protocol: as §1, §2

S. salivarius = experiment: MIC by broth microdilution; assay type: cell-based, Streptococcus salivarius; conditions: S. salivarius (viridans), N=12
Protocol: as §1, §2

S. sanguinis = experiment: MIC by broth microdilution; assay type: cell-based, Streptococcus sanguinis; conditions: S. sanguinis (viridans), N=15
Protocol: as §1, §2

S. gallolyticus = experiment: MIC by broth microdilution; assay type: cell-based, Streptococcus gallolyticus; conditions: S. gallolyticus (bovis), N=19
Protocol: as §1, §2

S. pyogenes = experiment: MIC by broth microdilution; assay type: cell-based, Streptococcus pyogenes; conditions: S. pyogenes (group A), N=100
Protocol: as §1, §2

S. agalactiae = experiment: MIC by broth microdilution; assay type: cell-based, Streptococcus agalactiae; conditions: S. agalactiae (group B), N=97
Protocol: as §1, §2

S. dysgalactiae = experiment: MIC by broth microdilution; assay type: cell-based, Streptococcus dysgalactiae; conditions: S. dysgalactiae (group G), N=22
Protocol: as §1, §2

S. pneumoniae = experiment: MIC by broth microdilution; assay type: cell-based, Streptococcus pneumoniae; conditions: S. pneumoniae, N=59
Protocol: as §1, §2

E. faecalis = experiment: MIC by broth microdilution; assay type: cell-based, Enterococcus faecalis; conditions: E. faecalis (formerly group D), N=18
Protocol: as §1, §2

MRSA strain MW2 = experiment: Left-sided catheter-induced IE model due to MRSA, CF-301 dose strategies plus DAP (Example 4); assay type: in vivo, rabbits
Protocol: Briefly, female New Zealand White rabbits (Harlan Laboratories; 2.3 to 2.5 kg body weight) underwent transcarotid-transaortic valve catheterization, and IE was induced by IV infection of ˜1-2×10^5 cfu of MW2 at 48 hours (h) after catheterization. […] See also FIG. 4.
On day 5, animals were sacrificed, and target tissues (cardiac vegetations, kidney and spleen) were removed and quantitatively cultured. Tissue MRSA counts are given as the mean log10 CFU/g of tissue±SD).
A two-tailed Student's t test was used to analyze the tissue MRSA counts between different groups. P values <0.05 were considered significant. No adjustment was made for all the P values reported in this study.

[1] = test system: MRSA strain MW2 (CA-MRSA; USA400); conditions: cited from earlier work
[2] = Staphylococcus aureus, read-out: MIC50
[3] = Staphylococcus aureus, read-out: MIC90
[4] = all CF-301 doses given in addition to DAP

## CCCCCCCCCC(=O)N[C@@H](Cc1c[nH]c2ccccc12)C(=O)N[C@H](CC(N)=O)C(=O)N[C@@H](CC(=O)O)C(=O)N[C@@H]1C(=O)NCC(=O)N[C@@H](CCCN)C(=O)N[C@@H](CC(=O)O)C(=O)N[C@H](C)C(=O)N[C@@H](CC(=O)O)C(=O)NCC(=O)N[C@H](CO)C(=O)N[C@@H]([C@H](C)CC(=O)O)C(=O)N[C@@H](CC(=O)c2ccccc2N)C(=O)O[C@@H]1C [DAP, Daptomycin]
S. aureus (MRSA)
  MIC Range: 0.125 to 1 µg/mL
S. aureus (MRSA); [2]
  MIC50: 0.25 µg/mL (≈ 0.154 µM)
S. aureus (MRSA); [3]
  MIC90: 0.5 µg/mL (≈ 0.309 µM)
S. aureus (MSSA)
  MIC Range: 0.125 to 0.5 µg/mL
S. aureus (MSSA); [2]
  MIC50: 0.25 µg/mL (≈ 0.154 µM)
S. aureus (MSSA); [3]
  MIC90: 0.25 µg/mL (≈ 0.154 µM)
S. lugdunensis
  MIC Range: 0.25 to 2 µg/mL
S. lugdunensis; Staphylococcus lugdunensis, read-out: MIC50
  MIC50: 0.5 µg/mL (≈ 0.309 µM)
S. lugdunensis; Staphylococcus lugdunensis, read-out: MIC90
  MIC90: 1 µg/mL (≈ 0.617 µM)
S. capitis
  MIC Range: 0.25 to 1 µg/mL
S. capitis; Staphylococcus capitis, read-out: MIC50
  MIC50: 0.5 µg/mL (≈ 0.309 µM)
S. capitis; Staphylococcus capitis, read-out: MIC90
  MIC90: 1 µg/mL (≈ 0.617 µM)
S. warneri
  MIC Range: 0.25 to 2 µg/mL
S. warneri; Staphylococcus warneri, read-out: MIC50
  MIC50: 0.5 µg/mL (≈ 0.309 µM)
S. warneri; Staphylococcus warneri, read-out: MIC90
  MIC90: 2 µg/mL (≈ 1.23 µM)
S. anginosus
  MIC Range: 0.25 to 0.5 µg/mL
S. anginosus; Streptococcus anginosus, read-out: MIC50
  MIC50: 0.5 µg/mL (≈ 0.309 µM)
S. anginosus; Streptococcus anginosus, read-out: MIC90
  MIC90: 0.5 µg/mL (≈ 0.309 µM)
S. gordonii
  MIC Range: 0.25 to 1 µg/mL
S. gordonii; Streptococcus gordonii, read-out: MIC50
  MIC50: 0.5 µg/mL (≈ 0.309 µM)
S. gordonii; Streptococcus gordonii, read-out: MIC90
  MIC90: 0.5 µg/mL (≈ 0.309 µM)
S. mitis
  MIC Range: 0.125 to 1 µg/mL
S. mitis; Streptococcus mitis, read-out: MIC50
  MIC50: 0.5 µg/mL (≈ 0.309 µM)
S. mitis; Streptococcus mitis, read-out: MIC90
  MIC90: 1 µg/mL (≈ 0.617 µM)
S. mutans
  MIC Range: 0.25 to 8 µg/mL
S. mutans; Streptococcus mutans, read-out: MIC50
  MIC50: 0.5 µg/mL (≈ 0.309 µM)
S. mutans; Streptococcus mutans, read-out: MIC90
  MIC90: 1 µg/mL (≈ 0.617 µM)
S. oralis
  MIC Range: 0.25 to 1 µg/mL
S. oralis; Streptococcus oralis, read-out: MIC50
  MIC50: 0.5 µg/mL (≈ 0.309 µM)
S. oralis; Streptococcus oralis, read-out: MIC90
  MIC90: 0.5 µg/mL (≈ 0.309 µM)
S. salivarius
  MIC Range: 0.06 to 0.5 µg/mL
S. salivarius; Streptococcus salivarius, read-out: MIC50
  MIC50: 0.25 µg/mL (≈ 0.154 µM)
S. salivarius; Streptococcus salivarius, read-out: MIC90
  MIC90: 0.5 µg/mL (≈ 0.309 µM)
S. sanguinis
  MIC Range: 0.06 to 1 µg/mL
S. sanguinis; Streptococcus sanguinis, read-out: MIC50
  MIC50: 0.25 µg/mL (≈ 0.154 µM)
S. sanguinis; Streptococcus sanguinis, read-out: MIC90
  MIC90: 1 µg/mL (≈ 0.617 µM)
S. gallolyticus
  MIC Range: 0.06 to 0.5 µg/mL
S. gallolyticus; Streptococcus gallolyticus, read-out: MIC50
  MIC50: 0.125 µg/mL (≈ 0.0771 µM)
S. gallolyticus; Streptococcus gallolyticus, read-out: MIC90
  MIC90: 0.25 µg/mL (≈ 0.154 µM)
S. pyogenes
  MIC Range: 0.016 to 0.06 µg/mL
S. pyogenes; Streptococcus pyogenes, read-out: MIC50
  MIC50: 0.03 µg/mL (≈ 0.0185 µM)
S. pyogenes; Streptococcus pyogenes, read-out: MIC90
  MIC90: 0.06 µg/mL (≈ 0.037 µM)
S. agalactiae
  MIC Range: 0.125 to 0.25 µg/mL
S. agalactiae; Streptococcus agalactiae, read-out: MIC50
  MIC50: 0.125 µg/mL (≈ 0.0771 µM)
S. agalactiae; Streptococcus agalactiae, read-out: MIC90
  MIC90: 0.25 µg/mL (≈ 0.154 µM)
S. dysgalactiae
  MIC Range: 0.06 to 0.5 µg/mL
S. dysgalactiae; Streptococcus dysgalactiae, read-out: MIC50
  MIC50: 0.125 µg/mL (≈ 0.0771 µM)
S. dysgalactiae; Streptococcus dysgalactiae, read-out: MIC90
  MIC90: 0.25 µg/mL (≈ 0.154 µM)
S. pneumoniae
  MIC Range: 0.06 to 0.25 µg/mL
S. pneumoniae; Streptococcus pneumoniae, read-out: MIC50
  MIC50: 0.125 µg/mL (≈ 0.0771 µM)
S. pneumoniae; Streptococcus pneumoniae, read-out: MIC90
  MIC90: 0.5 µg/mL (≈ 0.309 µM)
E. faecalis
  MIC Range: 0.25 to 0.5 µg/mL
E. faecalis; Enterococcus faecalis, read-out: MIC50
  MIC50: 0.5 µg/mL (≈ 0.309 µM)
E. faecalis; Enterococcus faecalis, read-out: MIC90
  MIC90: 0.5 µg/mL (≈ 0.309 µM)
MRSA strain MW2; DAP alone 4 mg/kg QD
  MRSA density, Mean Log10 CFU/g tissue ± SD, Kidneys: 4.62 ± 1.16^a Log10 CFU/g tissue
  MRSA density, Mean Log10 CFU/g tissue ± SD, Spleen: 4.04 ± 0.87^a Log10 CFU/g tissue
MRSA strain MW2; DAP alone 4 mg/kg iv QD x 4 day
  reduction in MRSA densities in all three target tissues vs vehicle controls: 2-3 log10 cfu/g
[1]
  MIC: 0.5 µg/mL (≈ 0.309 µM)

B1: CF-301: anti-staphylococcal lysin encoded within a prophage of the Streptococcus suis genome, SEQ ID NO: 2 with or without initial methionine (protein, listed as Streptococcus suis)
chain: MTTVNEALNNVRAQVGSGVSVGNGECYALASWYERMISPDATVGLGAGVGWVSGAIGDTISAKNIGSSYNWQANGWTVSTSGPFKAGQIVTLGATPGNPYGHVVIVEAVDGDRLTILEQNYGGKRYPVRNYYSAASYRQQVVHYITPPGTVAQSAPNLAGSRSYRETGTMTVTVDALNVRRAPNTSGEIVAVYKRGESFDYDTVIIDVNGYVWVSYIGGSGKRNYVATGATKDGKRFGNAWGTFK
S. aureus (MRSA)
  MIC50: 0.5 µg/mL
  MIC90: 1 µg/mL
  MIC Range: 0.5 to 2 µg/mL
S. aureus (MSSA)
  MIC50: 0.5 µg/mL
  MIC90: 0.5 µg/mL
  MIC Range: 0.25 to 1 µg/mL
S. lugdunensis
  MIC50: 1 µg/mL
  MIC90: 1 µg/mL
  MIC Range: 0.25 to 2 µg/mL
S. capitis
  MIC50: 1 µg/mL
  MIC90: 2 µg/mL
  MIC Range: 0.25 to 4 µg/mL
S. warneri
  MIC50: 0.5 µg/mL
  MIC90: 1 µg/mL
  MIC Range: 0.06 to 1 µg/mL
S. anginosus
  MIC50: 32 µg/mL
  MIC90: 64 µg/mL
  MIC Range: 1 to 64 µg/mL
S. gordonii
  MIC50: 4 µg/mL
  MIC90: 8 µg/mL
  MIC Range: 0.5 to 8 µg/mL
S. mitis
  MIC50: 2 µg/mL
  MIC90: 8 µg/mL
  MIC Range: 0.5 to 64 µg/mL
S. mutans
  MIC50: 32 µg/mL
  MIC90: 64 µg/mL
S. oralis
  MIC50: 4 µg/mL
  MIC90: 64 µg/mL
  MIC Range: 0.5 to 64 µg/mL
S. salivarius
  MIC50: 2 µg/mL
  MIC90: 8 µg/mL
  MIC Range: 0.5 to 8 µg/mL
S. sanguinis
  MIC50: 4 µg/mL
  MIC90: 16 µg/mL
  MIC Range: 2 to 32 µg/mL
S. gallolyticus
  MIC50: 64 µg/mL
  MIC90: >512 µg/mL
S. pyogenes
  MIC50: 1 µg/mL
  MIC90: 2 µg/mL
  MIC Range: 0.5 to 4 µg/mL
S. agalactiae
  MIC50: 1 µg/mL
  MIC90: 2 µg/mL
  MIC Range: 0.25 to 4 µg/mL
S. dysgalactiae
  MIC50: 1 µg/mL
  MIC90: 2 µg/mL
  MIC Range: 1 to 2 µg/mL
S. pneumoniae
  MIC50: 4 µg/mL
  MIC90: 32 µg/mL
  MIC Range: 1 to 64 µg/mL
E. faecalis
  MIC50: 16 µg/mL
  MIC90: 64 µg/mL
  MIC Range: 1 to 256 µg/mL
MRSA strain MW2; [4]
  further reduction of MRSA densities in all target tissues vs DAP alone: about 3 log10 cfu/g
  reduction of MRSA densities in all target tissues vs vehicle control groups: about 6 log10 cfu/g
[1]
  MIC: 1.0 µg/mL
